PubChem BioAssay AID2060622 (Molecular Pharmacology Branch, DTP, NCI, 2025)

Tested on: 242566-281-R-J2-PDC complex spheroid viability
Test: Anticancer human tumor 242566-281-R-J2-PDC patient-derived pancreatic carcinoma cell line growth inhibition [CLK]
Conditions: for IC50: curve of first compound; for viability, T/C: stronger effect = lower value
How it was run: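 Multi-cell-type spheroids combined patient-derived tumor cells with HUVEC endothelial cells and human mesenchymal stem cells. Paired agents were dosed in half-log steps down from about clinical Cmax, or from 10 microM where Cmax was unknown.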
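Note: spheroids exposed to compounds for 7 days before readout.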
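Throughout, for viability, T/C: 100% = DMSO vehicle control wells.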

CC(C)CC(NC(=O)C(Cc1ccccc1)NC(=O)c1cnccn1)B(O)O (centres undefined) + CN1CCN(c2cc(C(=O)Nc3cc4cc(-c5cnn(C)c5)ccc4cn3)ccn2)CC1
IC50 (second compound 0.0316 µM): 2080 pM | IC50 (second compound 0.1 µM): 1980 pM | IC50 (second compound 0.316 µM): < 949 pM | IC50 (second compound 1 µM): < 949 pM | IC50 (second compound 3.16 µM): < 949 pM | IC50 (second compound 10 µM): < 949 pM | viability, T/C (second compound 0.0316 µM, first compound 0.000949 µM): 103% | viability, T/C (second compound 0.0316 µM, first compound 0.003 µM): 25.5% | viability, T/C (second compound 0.0316 µM, first compound 0.00949 µM): 1.28% | viability, T/C (second compound 0.0316 µM, first compound 0.03 µM): 0.43% | viability, T/C (second compound 0.0316 µM, first compound 0.0949 µM): 0.27% | viability, T/C (second compound 0.0316 µM, first compound 0.3 µM): 0.23% | viability, T/C (second compound 0.1 µM, first compound 0.000949 µM): 98.8% | viability, T/C (second compound 0.1 µM, first compound 0.003 µM): 22.7% | viability, T/C (second compound 0.1 µM, first compound 0.00949 µM): 0.52% | viability, T/C (second compound 0.1 µM, first compound 0.03 µM): 0.43% | viability, T/C (second compound 0.1 µM, first compound 0.0949 µM): 0.39% | viability, T/C (second compound 0.1 µM, first compound 0.3 µM): 0.27% | viability, T/C (second compound 0.316 µM, first compound 0.000949 µM): 26.7% | viability, T/C (second compound 0.316 µM, first compound 0.003 µM): 2.24% | viability, T/C (second compound 0.316 µM, first compound 0.00949 µM): 0.29% | viability, T/C (second compound 0.316 µM, first compound 0.03 µM): 0.28% | viability, T/C (second compound 0.316 µM, first compound 0.0949 µM): 0.29% | viability, T/C (second compound 0.316 µM, first compound 0.3 µM): 0.51% | viability, T/C (second compound 1 µM, first compound 0.000949 µM): 5.2% | viability, T/C (second compound 1 µM, first compound 0.003 µM): 1.12% | viability, T/C (second compound 1 µM, first compound 0.00949 µM): 0.43% | viability, T/C (second compound 1 µM, first compound 0.03 µM): 0.31% | viability, T/C (second compound 1 µM, first compound 0.0949 µM): 0.26% | viability, T/C (second compound 1 µM, first compound 0.3 µM): 0.4% | viability, T/C (second compound 3.16 µM, first compound 0.000949 µM): 7.89% | viability, T/C (second compound 3.16 µM, first compound 0.003 µM): 1.95% | viability, T/C (second compound 3.16 µM, first compound 0.00949 µM): 0.39% | viability, T/C (second compound 3.16 µM, first compound 0.03 µM): 0.2% | viability, T/C (second compound 3.16 µM, first compound 0.0949 µM): 0.38% | viability, T/C (second compound 3.16 µM, first compound 0.3 µM): 0.8% | viability, T/C (second compound 10 µM, first compound 0.000949 µM): 1.93% | viability, T/C (second compound 10 µM, first compound 0.003 µM): 1.11% | viability, T/C (second compound 10 µM, first compound 0.00949 µM): 0.3% | viability, T/C (second compound 10 µM, first compound 0.03 µM): 0.44% | viability, T/C (second compound 10 µM, first compound 0.0949 µM): 0.26% | viability, T/C (second compound 10 µM, first compound 0.3 µM): 0.34%

Cn1ncnc1[C@H]1c2n[nH]c(=O)c3cc(F)cc(c23)N[C@@H]1c1ccc(F)cc1 + CN1CCN(c2cc(C(=O)Nc3cc4cc(-c5cnn(C)c5)ccc4cn3)ccn2)CC1
IC50 (second compound 0.0316 µM): > 100000 pM | IC50 (second compound 0.1 µM): > 100000 pM | IC50 (second compound 0.316 µM): < 316 pM | IC50 (second compound 1 µM): < 316 pM | IC50 (second compound 3.16 µM): < 316 pM | IC50 (second compound 10 µM): < 316 pM | viability, T/C (second compound 0.0316 µM, first compound 0.000316 µM): 106% | viability, T/C (second compound 0.0316 µM, first compound 0.001 µM): 96.4% | viability, T/C (second compound 0.0316 µM, first compound 0.00316 µM): 99.5% | viability, T/C (second compound 0.0316 µM, first compound 0.01 µM): 107% | viability, T/C (second compound 0.0316 µM, first compound 0.0316 µM): 97.9% | viability, T/C (second compound 0.0316 µM, first compound 0.1 µM): 88% | viability, T/C (second compound 0.1 µM, first compound 0.000316 µM): 87.7% | viability, T/C (second compound 0.1 µM, first compound 0.001 µM): 87.9% | viability, T/C (second compound 0.1 µM, first compound 0.00316 µM): 89.1% | viability, T/C (second compound 0.1 µM, first compound 0.01 µM): 86.6% | viability, T/C (second compound 0.1 µM, first compound 0.0316 µM): 84.8% | viability, T/C (second compound 0.1 µM, first compound 0.1 µM): 62.9% | viability, T/C (second compound 0.316 µM, first compound 0.000316 µM): 34% | viability, T/C (second compound 0.316 µM, first compound 0.001 µM): 35% | viability, T/C (second compound 0.316 µM, first compound 0.00316 µM): 32.3% | viability, T/C (second compound 0.316 µM, first compound 0.01 µM): 30.9% | viability, T/C (second compound 0.316 µM, first compound 0.0316 µM): 31.3% | viability, T/C (second compound 0.316 µM, first compound 0.1 µM): 26.8% | viability, T/C (second compound 1 µM, first compound 0.000316 µM): 4.47% | viability, T/C (second compound 1 µM, first compound 0.001 µM): 4.64% | viability, T/C (second compound 1 µM, first compound 0.00316 µM): 4.59% | viability, T/C (second compound 1 µM, first compound 0.01 µM): 4.07% | viability, T/C (second compound 1 µM, first compound 0.0316 µM): 3.7% | viability, T/C (second compound 1 µM, first compound 0.1 µM): 3.76% | viability, T/C (second compound 3.16 µM, first compound 0.000316 µM): 6.68% | viability, T/C (second compound 3.16 µM, first compound 0.001 µM): 7.67% | viability, T/C (second compound 3.16 µM, first compound 0.00316 µM): 6.68% | viability, T/C (second compound 3.16 µM, first compound 0.01 µM): 5.7% | viability, T/C (second compound 3.16 µM, first compound 0.0316 µM): 5.67% | viability, T/C (second compound 3.16 µM, first compound 0.1 µM): 5.8% | viability, T/C (second compound 10 µM, first compound 0.000316 µM): 0.94% | viability, T/C (second compound 10 µM, first compound 0.001 µM): 1.5% | viability, T/C (second compound 10 µM, first compound 0.00316 µM): 1.24% | viability, T/C (second compound 10 µM, first compound 0.01 µM): 1.06% | viability, T/C (second compound 10 µM, first compound 0.0316 µM): 2.08% | viability, T/C (second compound 10 µM, first compound 0.1 µM): 1.4%
